From ChEMBL document CHEMBL4382193, “Discovery of Potent Irreversible Pan-Fibroblast Growth Factor Receptor (FGFR) Inhibitors” (J Med Chem, 2018)
Blank lines part the entries; values can stand above or below the compound they belong to. The source made the active and inactive calls. The calls are words filed in the database; no cut-off is given here.

Tests used:
NCI-H1581 [1] = experiment: cells; settings: Homo sapiens, NCI-H1581, 72 h
Description: Antiproliferative activity against FGFR1 amplified human NCI-H1581 cells after 72 hrs by CCK8 or MTT assay

[2] = target: T1, Fibroblast growth factor receptor 1 (Homo sapiens, UniProt P11362)
Target sequence in this assay (P11362 whole entry): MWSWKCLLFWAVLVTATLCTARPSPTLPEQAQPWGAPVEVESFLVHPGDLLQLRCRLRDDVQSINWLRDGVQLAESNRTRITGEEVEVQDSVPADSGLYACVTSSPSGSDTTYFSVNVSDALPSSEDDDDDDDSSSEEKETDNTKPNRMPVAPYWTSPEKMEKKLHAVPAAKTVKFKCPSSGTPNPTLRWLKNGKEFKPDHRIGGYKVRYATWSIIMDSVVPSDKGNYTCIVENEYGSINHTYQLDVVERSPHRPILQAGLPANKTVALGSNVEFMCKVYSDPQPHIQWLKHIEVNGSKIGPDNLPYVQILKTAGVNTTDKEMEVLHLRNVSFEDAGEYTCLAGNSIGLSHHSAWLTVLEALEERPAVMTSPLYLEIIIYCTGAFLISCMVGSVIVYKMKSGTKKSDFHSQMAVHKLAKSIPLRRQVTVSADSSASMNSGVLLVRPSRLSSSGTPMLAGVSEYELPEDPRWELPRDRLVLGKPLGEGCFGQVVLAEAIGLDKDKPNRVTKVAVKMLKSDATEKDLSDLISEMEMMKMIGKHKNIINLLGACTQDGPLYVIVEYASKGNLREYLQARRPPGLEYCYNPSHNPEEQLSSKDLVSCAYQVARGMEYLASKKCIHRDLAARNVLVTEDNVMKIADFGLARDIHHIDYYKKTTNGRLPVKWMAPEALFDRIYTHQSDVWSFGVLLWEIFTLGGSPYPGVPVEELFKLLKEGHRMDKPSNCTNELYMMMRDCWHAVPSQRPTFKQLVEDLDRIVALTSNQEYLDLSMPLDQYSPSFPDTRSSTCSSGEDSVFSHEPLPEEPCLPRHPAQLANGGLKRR
Description: Inhibition of recombinant FGFR1 (unknown origin) using poly (Glu,Tyr) 4:1 as substrate after 60 mins by ELISA

[3] = Tmax in Sprague-Dawley rat at 10 mg/kg, po administered via gavage by HPLC-MS/MS analysis; type: ADME, organism-based; settings: in vivo
[4] = Cmax in Sprague-Dawley rat at 10 mg/kg, po administered via gavage by HPLC-MS/MS analysis; type: ADME, organism-based; design: dose 10 mg/kg, route oral; settings: in vivo
[5] = AUC in Sprague-Dawley rat at 10 mg/kg, po administered via gavage by HPLC-MS/MS analysis; type: ADME, organism-based; settings: in vivo
[6] = Terminal half life in Sprague-Dawley rat at 10 mg/kg, po administered via gavage by HPLC-MS/MS analysis; type: ADME, organism-based; settings: in vivo, read-out: beta t1/2 (converted)
[7] = target: Fibroblast growth factor receptor 4 (Homo sapiens, UniProt P22455); experiment: Inhibition of recombinant FGFR4 (unknown origin) using poly (Glu,Tyr) 4:1 as substrate after 60 mins by ELISA
[8] = target: T2, Fibroblast growth factor receptor 2 (Homo sapiens, UniProt P21802); experiment: Inhibition of recombinant FGFR2 (unknown origin) using poly (Glu,Tyr) 4:1 as substrate after 60 mins by ELISA
[9] = target: T3, Fibroblast growth factor receptor 3 (Homo sapiens, UniProt P22607); experiment: Inhibition of recombinant FGFR3 (unknown origin) using poly (Glu,Tyr) 4:1 as substrate after 60 mins by ELISA
[10] = target: Vascular endothelial growth factor receptor 2 (Homo sapiens, UniProt P35968); experiment: Inhibition of recombinant VEGFR2 (unknown origin) using poly (Glu,Tyr) 4:1 as substrate after 60 mins by ELISA
[11] = target: Platelet-derived growth factor receptor alpha (Homo sapiens, UniProt P16234); experiment: Inhibition of recombinant PDGFRalpha (unknown origin) using poly (Glu,Tyr) 4:1 as substrate after 60 mins by ELISA
[12] = target: Platelet-derived growth factor receptor beta (Homo sapiens, UniProt P09619); experiment: Inhibition of recombinant PDGFRbeta (unknown origin) using poly (Glu,Tyr) 4:1 as substrate after 60 mins by ELISA
[13] = target: ALK tyrosine kinase receptor (Homo sapiens, UniProt Q9UM73); experiment: Inhibition of recombinant ALK (unknown origin) using poly (Glu,Tyr) 4:1 as substrate after 60 mins by ELISA
[14] = target: Vascular endothelial growth factor receptor 1 (Homo sapiens, UniProt P17948); experiment: Inhibition of recombinant FLT1 (unknown origin) using poly (Glu,Tyr) 4:1 as substrate after 60 mins by ELISA
[15] = target: Proto-oncogene tyrosine-protein kinase Src (Homo sapiens, UniProt P12931); experiment: Inhibition of recombinant c-SRC (unknown origin) using poly (Glu,Tyr) 4:1 as substrate after 60 mins by ELISA
[16] = target: Receptor tyrosine-protein kinase erbB-2 (Homo sapiens, UniProt P04626); experiment: Inhibition of recombinant ERBB2 (unknown origin) using poly (Glu,Tyr) 4:1 as substrate after 60 mins by ELISA
[17] = target: Hepatocyte growth factor receptor (Homo sapiens, UniProt P08581); experiment: Inhibition of recombinant c-MET (unknown origin) using poly (Glu,Tyr) 4:1 as substrate after 60 mins by ELISA
[18] = target: Tyrosine-protein kinase ABL1 (Homo sapiens, UniProt P00519); experiment: Inhibition of recombinant ABL (unknown origin) using poly (Glu,Tyr) 4:1 as substrate after 60 mins by ELISA
[19] = target: Epidermal growth factor receptor (Homo sapiens, UniProt P00533); experiment: Inhibition of recombinant EGFR (unknown origin) using poly (Glu,Tyr) 4:1 as substrate after 60 mins by ELISA
Ephrin type-A receptor 2 = Ephrin type-A receptor 2 (Homo sapiens, UniProt P29317); experiment: Inhibition of recombinant EPHA2 (unknown origin) using poly (Glu,Tyr) 4:1 as substrate after 60 mins by ELISA
[20] = target: Receptor tyrosine-protein kinase erbB-4 (Homo sapiens, UniProt Q15303); experiment: Inhibition of recombinant ERBB4 (unknown origin) using poly (Glu,Tyr) 4:1 as substrate after 60 mins by ELISA
[21] = target: Insulin-like growth factor 1 receptor (Homo sapiens, UniProt P08069); experiment: Inhibition of recombinant IGF1R (unknown origin) using poly (Glu,Tyr) 4:1 as substrate after 60 mins by ELISA
[22] = target: Tyrosine-protein kinase BTK (Homo sapiens, UniProt Q06187); experiment: Inhibition of recombinant BTK (unknown origin) using poly (Glu,Tyr) 4:1 as substrate after 60 mins by ELISA
Homo sapiens = organism: Homo sapiens; experiment: Selectivity ratio of IC50 for recombinant VEGFR2 (unknown origin) to IC50 for recombinant FGFR1 (unknown origin)
[23] = target: T1, Fibroblast growth factor receptor 1; experiment: Inhibition of FGFR1 phosphorylation in human KG1 cells at 5 to 20 nM after 2 hrs by Western blot analysis; type: cell-based
Target sequence in this assay (P11362 22-822 limits assumed): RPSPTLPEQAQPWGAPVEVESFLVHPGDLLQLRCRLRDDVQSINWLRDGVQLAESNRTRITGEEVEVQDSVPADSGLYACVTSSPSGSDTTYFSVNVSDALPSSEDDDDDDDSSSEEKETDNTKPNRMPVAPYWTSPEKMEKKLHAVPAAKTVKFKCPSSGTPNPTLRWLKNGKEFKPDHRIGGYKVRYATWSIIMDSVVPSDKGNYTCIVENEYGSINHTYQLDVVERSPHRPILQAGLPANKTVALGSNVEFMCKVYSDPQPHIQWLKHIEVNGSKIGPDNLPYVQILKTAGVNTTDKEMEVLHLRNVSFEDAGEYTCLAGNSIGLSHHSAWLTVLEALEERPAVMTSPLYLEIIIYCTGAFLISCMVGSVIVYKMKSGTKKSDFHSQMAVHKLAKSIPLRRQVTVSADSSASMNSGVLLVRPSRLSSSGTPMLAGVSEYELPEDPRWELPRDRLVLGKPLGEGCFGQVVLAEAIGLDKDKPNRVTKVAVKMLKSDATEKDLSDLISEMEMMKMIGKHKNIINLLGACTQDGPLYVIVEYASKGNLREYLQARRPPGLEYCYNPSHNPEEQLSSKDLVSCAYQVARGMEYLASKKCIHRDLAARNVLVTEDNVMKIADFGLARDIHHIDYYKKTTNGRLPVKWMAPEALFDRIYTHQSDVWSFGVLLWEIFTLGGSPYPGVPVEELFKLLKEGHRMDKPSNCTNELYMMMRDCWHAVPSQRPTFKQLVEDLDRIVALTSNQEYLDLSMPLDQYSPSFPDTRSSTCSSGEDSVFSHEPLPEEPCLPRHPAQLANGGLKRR

[24] = target: T1, Fibroblast growth factor receptor 1; experiment: Inhibition of FGFR1 in human KG1 cells assessed as reduction in PLCgamma phosphorylation at 5 to 20 nM after 2 hrs by Western blot analysis; type: cell-based
Target sequence in this assay (P11362 22-822 limits assumed): as above

[25] = target: T1, Fibroblast growth factor receptor 1; experiment: Inhibition of FGFR1 in human KG1 cells assessed as reduction in ERK phosphorylation at 5 to 20 nM after 2 hrs by Western blot analysis; type: cell-based
Target sequence in this assay (P11362 22-822 limits assumed): as above

[26] = target: T2, Fibroblast growth factor receptor 2; experiment: Inhibition of FGFR2 phosphorylation in human SNU16 cells at 0.1 to 10 nM after 2 hrs by Western blot analysis; type: cell-based
Target sequence in this assay (P21802 22-821 limits assumed): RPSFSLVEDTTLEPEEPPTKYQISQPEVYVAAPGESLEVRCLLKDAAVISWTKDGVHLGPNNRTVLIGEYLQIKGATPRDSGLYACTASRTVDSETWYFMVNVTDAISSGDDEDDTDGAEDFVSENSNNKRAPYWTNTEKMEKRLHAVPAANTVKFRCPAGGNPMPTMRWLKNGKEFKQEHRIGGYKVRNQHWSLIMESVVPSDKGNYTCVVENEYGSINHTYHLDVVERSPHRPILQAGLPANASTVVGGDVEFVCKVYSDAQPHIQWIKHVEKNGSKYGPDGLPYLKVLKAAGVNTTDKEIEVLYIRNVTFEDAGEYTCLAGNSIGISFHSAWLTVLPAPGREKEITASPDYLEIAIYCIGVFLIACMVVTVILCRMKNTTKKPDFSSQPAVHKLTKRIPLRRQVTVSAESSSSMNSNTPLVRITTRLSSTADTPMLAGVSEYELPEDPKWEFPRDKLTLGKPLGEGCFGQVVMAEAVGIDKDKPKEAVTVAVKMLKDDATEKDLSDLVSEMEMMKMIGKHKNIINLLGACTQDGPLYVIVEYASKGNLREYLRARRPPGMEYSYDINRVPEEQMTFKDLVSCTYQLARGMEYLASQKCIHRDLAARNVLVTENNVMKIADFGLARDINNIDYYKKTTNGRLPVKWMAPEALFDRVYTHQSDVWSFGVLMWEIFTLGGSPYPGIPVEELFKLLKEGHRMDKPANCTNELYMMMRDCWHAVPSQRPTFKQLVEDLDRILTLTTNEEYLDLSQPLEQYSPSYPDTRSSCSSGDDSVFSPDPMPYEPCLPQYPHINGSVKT

[27] = target: T2, Fibroblast growth factor receptor 2; experiment: Inhibition of FGFR2 in human SNU16 cells assessed as reduction in PLCgamma phosphorylation at 0.1 to 10 nM after 2 hrs by Western blot analysis; type: cell-based
Target sequence in this assay (P21802 22-821 limits assumed): as above

[28] = target: T2, Fibroblast growth factor receptor 2; experiment: Inhibition of FGFR2 in human SNU16 cells assessed as reduction in ERK phosphorylation at 0.1 to 10 nM after 2 hrs by Western blot analysis; type: cell-based
Target sequence in this assay (P21802 22-821 limits assumed): as above

[29] = target: T3, Fibroblast growth factor receptor 3; experiment: Inhibition of FGFR3 phosphorylation in human UMUC14 cells at 1 to 100 nM after 2 hrs by Western blot analysis; type: cell-based
Target sequence in this assay (P22607 23-806 limits assumed): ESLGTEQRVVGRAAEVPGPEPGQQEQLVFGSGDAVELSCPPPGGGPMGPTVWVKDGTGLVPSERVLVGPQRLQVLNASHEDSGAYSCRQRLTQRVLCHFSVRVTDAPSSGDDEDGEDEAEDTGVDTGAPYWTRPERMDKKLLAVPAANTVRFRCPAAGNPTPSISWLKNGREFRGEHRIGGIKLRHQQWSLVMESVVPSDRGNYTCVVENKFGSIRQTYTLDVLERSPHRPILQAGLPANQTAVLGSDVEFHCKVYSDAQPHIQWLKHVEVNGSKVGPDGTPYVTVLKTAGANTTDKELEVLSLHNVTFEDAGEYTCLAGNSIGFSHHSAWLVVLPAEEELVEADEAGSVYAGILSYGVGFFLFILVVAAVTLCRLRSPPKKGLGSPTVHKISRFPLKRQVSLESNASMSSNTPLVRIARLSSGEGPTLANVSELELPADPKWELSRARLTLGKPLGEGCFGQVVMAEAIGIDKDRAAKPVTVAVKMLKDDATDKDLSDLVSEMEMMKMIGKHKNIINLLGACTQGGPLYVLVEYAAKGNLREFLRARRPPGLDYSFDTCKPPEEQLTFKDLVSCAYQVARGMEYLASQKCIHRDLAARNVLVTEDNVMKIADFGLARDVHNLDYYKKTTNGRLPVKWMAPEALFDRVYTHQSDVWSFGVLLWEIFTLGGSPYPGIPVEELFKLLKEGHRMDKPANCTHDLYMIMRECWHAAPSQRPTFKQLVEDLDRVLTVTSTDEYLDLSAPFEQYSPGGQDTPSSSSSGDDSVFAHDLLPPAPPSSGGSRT

[30] = target: T3, Fibroblast growth factor receptor 3; experiment: Inhibition of FGFR3 in human UMUC14 cells assessed as reduction in PLCgamma phosphorylation at 1 to 100 nM after 2 hrs by Western blot analysis; type: cell-based
Target sequence in this assay (P22607 23-806 limits assumed): as above

[31] = target: T3, Fibroblast growth factor receptor 3; experiment: Inhibition of FGFR3 in human UMUC14 cells assessed as reduction in ERK phosphorylation at 1 to 100 nM after 2 hrs by Western blot analysis; type: cell-based
Target sequence in this assay (P22607 23-806 limits assumed): as above

[32] = target: T1, Fibroblast growth factor receptor 1; experiment: Irreversible inhibition of FGFR1 (unknown origin) at 100 times IC50 concentration using 5-FAM-KKSRGDYMTMQIG-CONH2 peptide as substrate preincubated for 30 mins followed 100 fold dilution with substrate and ATP and measured for 1 hr
Target sequence in this assay (P11362 22-822 limits assumed): as the sequence (P11362 22-822 limits assumed) above

NCI-H1581 [33] = experiment: Antitumor activity against FGFR1 amplified human NCI-H1581 cells xenografted in po dosed nude mouse assessed as tumor growth inhibition administered once daily for 14 days; type: functional, organism-based
SNU-16 [34] = experiment: Antitumor activity against FGFR2 amplified human SNU16 cells xenografted in po dosed nude mouse assessed as tumor growth inhibition administered once daily for 21 days; type: functional, organism-based
NCI-H1581 [35] = experiment: Antitumor activity against FGFR1 amplified human NCI-H1581 cells xenografted in nude mouse assessed as tumor growth inhibition at 100 mg/kg, po administered once daily for 14 days relative to control; type: functional; settings: 336 h, read-out: TGI
SNU-16 [36] = experiment: Antitumor activity against FGFR2 amplified human SNU16 cells xenografted in nude mouse assessed as tumor growth inhibition at 50 mg/kg, po administered once daily for 21 days relative to control; type: functional; settings: SNU-16, po, 504 h, read-out: TGI
[37] = Toxicity in nude mouse xenografted with FGFR1 amplified human NCI-H1581 cells assessed as weight loss at 50 to 100 mg/kg, po administered once daily for 14 days relative to control; type: organism-based; settings: in vivo, 336 h
[38] = Toxicity in nude mouse xenografted with FGFR2 amplified human SNU16 cells assessed as weight loss at 25 to 50 mg/kg, po administered once daily for 21 days relative to control; type: organism-based; settings: in vivo, 504 h
SNU-16 [39] = experiment: cells; settings: Homo sapiens, SNU-16, 72 h
Description: Antiproliferative activity against FGFR2 amplified human SNU16 cells after 72 hrs by CCK8 or MTT assay

OPM-2 = experiment: cells; settings: Homo sapiens, OPM-2, 72 h
Description: Antiproliferative activity against FGFR3 amplified human OPM2 cells after 72 hrs by CCK8 or MTT assay

RT-112 = experiment: cells; settings: Homo sapiens, RT-112, 72 h
Description: Antiproliferative activity against FGFR3 amplified human RT112 cells after 72 hrs by CCK8 or MTT assay

Huh-7 = experiment: cells; settings: Homo sapiens, Huh-7, 72 h
Description: Antiproliferative activity against FGF19/FGFR4 expressing human HuH7 cells after 72 hrs by CCK8 or MTT assay

BaF3 [40] = experiment: cells; settings: Mus musculus, BaF3, 72 h
Description: Antiproliferative activity against mouse BAF3 cells expressing TEL-fused FGFR4 kinase after 72 hrs by CCK8 or MTT assay

BaF3 [41] = experiment: cells; settings: Mus musculus, BaF3, 72 h; remark: listed apart in the source
Description: Antiproliferative activity against mouse BAF3 cells expressing TEL-fused KDR kinase after 72 hrs by CCK8 or MTT assay

Chain of Fibroblast growth factor receptor 4 (P22455 whole entry): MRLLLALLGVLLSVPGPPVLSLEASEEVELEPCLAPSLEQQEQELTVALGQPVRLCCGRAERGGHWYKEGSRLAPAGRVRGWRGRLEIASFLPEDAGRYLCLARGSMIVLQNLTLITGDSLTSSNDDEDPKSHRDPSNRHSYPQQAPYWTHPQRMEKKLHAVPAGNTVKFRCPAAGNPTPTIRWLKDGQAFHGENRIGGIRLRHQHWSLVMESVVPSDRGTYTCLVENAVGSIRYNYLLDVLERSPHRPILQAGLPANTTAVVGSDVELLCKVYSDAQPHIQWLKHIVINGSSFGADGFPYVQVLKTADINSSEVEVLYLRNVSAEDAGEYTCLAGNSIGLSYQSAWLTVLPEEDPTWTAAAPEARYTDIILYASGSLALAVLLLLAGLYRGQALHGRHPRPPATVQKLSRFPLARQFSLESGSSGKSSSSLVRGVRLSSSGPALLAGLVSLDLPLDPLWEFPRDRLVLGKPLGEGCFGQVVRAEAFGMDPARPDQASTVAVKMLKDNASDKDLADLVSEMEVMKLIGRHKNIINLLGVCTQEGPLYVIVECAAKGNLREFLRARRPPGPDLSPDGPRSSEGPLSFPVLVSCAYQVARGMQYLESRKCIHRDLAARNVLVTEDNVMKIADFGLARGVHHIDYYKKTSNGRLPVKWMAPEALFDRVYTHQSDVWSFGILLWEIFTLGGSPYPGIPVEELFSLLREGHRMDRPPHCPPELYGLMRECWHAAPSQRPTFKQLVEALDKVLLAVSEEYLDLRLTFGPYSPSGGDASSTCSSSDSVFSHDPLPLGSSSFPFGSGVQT
Chain of Proto-oncogene tyrosine-protein kinase Src (P12931 2-536 limits assumed): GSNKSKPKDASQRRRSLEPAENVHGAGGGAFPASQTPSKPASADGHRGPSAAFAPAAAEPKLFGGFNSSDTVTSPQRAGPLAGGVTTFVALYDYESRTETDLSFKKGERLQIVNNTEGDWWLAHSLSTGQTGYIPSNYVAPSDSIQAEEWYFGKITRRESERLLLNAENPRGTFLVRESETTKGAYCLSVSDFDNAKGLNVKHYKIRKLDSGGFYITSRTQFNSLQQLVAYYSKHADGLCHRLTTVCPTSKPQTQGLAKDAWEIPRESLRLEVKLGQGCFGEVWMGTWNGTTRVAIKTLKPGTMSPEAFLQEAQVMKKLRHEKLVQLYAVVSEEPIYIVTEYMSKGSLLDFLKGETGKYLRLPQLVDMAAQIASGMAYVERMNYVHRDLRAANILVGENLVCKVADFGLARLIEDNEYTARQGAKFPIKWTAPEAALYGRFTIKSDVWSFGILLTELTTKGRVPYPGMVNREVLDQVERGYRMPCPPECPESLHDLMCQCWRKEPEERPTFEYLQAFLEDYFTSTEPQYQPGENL

SMILES: C=CC(=O)N1CCC(n2cc(-c3cc4cccc(OC)c4s3)c3c(N)ncnc32)C1 (stereo unspecified)
IC50 (NCI-H1581 [1]): < 0.3 nM

SMILES: C=CS(=O)(=O)N1CC(n2cc(-c3cc4cc(C)cc(OC)c4s3)c3c(N)ncnc32)C1
IC50 [2]: < 0.3 nM | IC50 (NCI-H1581 [1]): > 1000 nM

SMILES: C=CC(=O)N1CCCC(n2cc(-c3cc4cc(C)cc(OC)c4s3)c3c(N)ncnc32)C1 (stereo unspecified)
IC50 (NCI-H1581 [1]): 227 nM

SMILES: C=CC(=O)N1CCCC1Cn1cc(-c2cc3cc(C)cc(OC)c3s2)c2c(N)ncnc21 (stereo unspecified)
IC50 (NCI-H1581 [1]): < 0.3 nM

SMILES: C=CC(=O)N1CC(n2cc(-c3cc4cc(OC)ccc4s3)c3c(N)ncnc32)C1
IC50 (NCI-H1581 [1]): 38.1 nM

SMILES: C=CC(=O)N1CC(n2cc(-c3cc4cc(C)cc(OC)c4s3)c3c(N)ncnc32)C1
Tmax [3]: 1.67 h | Cmax [4]: 12 ng/mL | AUC [5]: 46.4 ng·h/mL | half-life [6]: 127 min | IC50 (NCI-H1581 [1]): < 0.3 nM

SMILES: C=CC(=O)N1CC[C@H](n2cc(-c3cc4cc(C)cc(OC)c4s3)c3c(N)ncnc32)C1
IC50 [7]: 5.3 nM | Tmax [3]: 2.75 h | Cmax [4]: 77.7 ng/mL | AUC [5]: 277 ng·h/mL | half-life [6]: 104 min | IC50 [8]: 0.8 nM | IC50 [9]: 9.4 nM | IC50 [10]: 113 nM | IC50 [11]: > 1000 nM | IC50 [12]: > 1000 nM | IC50 [13]: > 1000 nM | IC50 [14]: > 1000 nM | IC50 [15]: > 1000 nM | IC50 [16]: > 1000 nM | IC50 [17]: > 1000 nM | IC50 [18]: > 1000 nM | IC50 [19]: > 1000 nM | IC50 (Ephrin type-A receptor 2): > 1000 nM | IC50 [20]: > 1000 nM | IC50 [21]: > 1000 nM | IC50 [22]: > 1000 nM | Ratio IC50 (Homo sapiens): > 350 | inhibition [23]: Active | inhibition [24]: Active | inhibition [25]: Active | inhibition [26]: Active | inhibition [27]: Active | inhibition [28]: Active | inhibition [29]: Active | inhibition [30]: Active | inhibition [31]: Active | inhibition [32]: Active | TGI (NCI-H1581 [33]): Dose-dependent effect | TGI (SNU-16 [34]): Dose-dependent effect | inhibition in vivo at 100 mg/kg (NCI-H1581 [35]): 98.9% | inhibition in vivo at 50 mg/kg (SNU-16 [36]): 85.8% | Activity [37]: Non-Toxic | Activity [38]: Non-Toxic | IC50 [2]: < 0.3 nM | IC50 (NCI-H1581 [1]): 0.3 to 0.5 nM | IC50 (SNU-16 [39]): < 0.1 nM | IC50 (OPM-2): < 0.5 nM | IC50 (RT-112): < 0.5 nM | IC50 (Huh-7): < 1.5 nM | IC50 (BaF3 [40]): < 4.6 nM | IC50 (BaF3 [41]): 294 nM

SMILES: C=CC(=O)N1CC(n2cc(-c3cc4ccc(OC)cc4s3)c3c(N)ncnc32)C1
IC50 (NCI-H1581 [1]): 86.1 nM

SMILES: C=CC(=O)N1CC(n2cc(-c3cc4cc(C)cc(OC)c4o3)c3c(N)ncnc32)C1
IC50 [7]: > 1000 nM

SMILES: COc1cc(C)cc2cc(-c3cn(C4CCN(C(=O)/C=C/CN(C)C)C4)c4ncnc(N)c34)sc12 (stereo unspecified)
IC50 (NCI-H1581 [1]): < 0.3 nM

Results, then the compound that gave them:

IC50 (NCI-H1581 [1]): 25.7 nM
SMILES: C=CC(=O)N1CCC(n2cc(-c3cc4cc(C)cc(OC)c4s3)c3c(N)nc(N)nc32)C1 (stereo unspecified)

IC50 (NCI-H1581 [1]): < 0.3 nM
SMILES: C=CC(=O)N1CCC(n2cc(-c3cc4cc(OC)cc(OC)c4s3)c3c(N)ncnc32)C1 (stereo unspecified)

IC50 (NCI-H1581 [1]): < 0.3 nM
SMILES: C=C(CN(C)C)C(=O)N1CCC(n2cc(-c3cc4cc(C)cc(OC)c4s3)c3c(N)ncnc32)C1 (stereo unspecified)

IC50 (NCI-H1581 [1]): < 0.3 nM
SMILES: C=CC(=O)N1CCC(n2cc(-c3cc4cccc(C)c4s3)c3c(N)ncnc32)C1 (stereo unspecified)

IC50 [7]: > 100 nM | IC50 [2]: > 100 nM
SMILES: C=CC(=O)N1CCC(n2cc(-c3cc4cc(C)cc(OC)c4s3)c3c(NC)ncnc32)C1 (stereo unspecified)
